Laboratory results: publication PMC8428848, “Ancient role of sulfakinin/cholecystokinin-type signalling in inhibitory regulation of feeding processes revealed in an echinoderm” (eLife, 2021)
Square brackets hold non-standard residues; d marks the D form. Peptide text beside a SMILES is read from it. sY = N[C@@H](Cc1ccc(OS(=O)(=O)O)cc1)C(=O)O; pGlu = O=C1CC[C@@H](C(=O)O)N1

What was measured:
[1] = test system: affinity-purified rabbit antibodies to ArSK/CCK1; assay: ELISA specificity test of affinity-purified antibodies to ArSK/CCK1; assay type: binding; settings: TEA fraction diluted 1:10; peptide 0.1 nmol (100 µl of 1 µM); mean of six replicates
Text: To generate antibodies to ArSK/CCK1, an N-terminally truncated peptide analog of ArSK/CCK1 with the addition of a reactive N-terminal lysine residue was synthesized (KY(SO3H)GHGLFW-NH2 , Peptide Protein Research Ltd, Fareham, UK). To generate antibodies to ArSK/CCKR, a peptide corresponding to the C-terminal 15 amino acids of ArSK/CCK-R with addition of an N-terminal reactive lysine residue was synthesized (KPSPTNYTNVSSDSSV, Peptide Protein Research Ltd, Fareham, UK). These peptides were conjugated to porcine thyroglobulin (Sigma-Aldrich, Gillingham, UK) as a carrier protein using 5% glutaraldehyde (Sigma-Aldrich, Gillingham, UK) in phosphate buffer (0.1 M; pH 7.2) and the conjugate was used for immunisation of a rabbit for ArSK/CCK1 (70-day protocol; Charles River Biologics, Romans, France) and a guinea pig for ArSK/CCKR (56-day protocol; Charles River Biologics, Romans, France). The antigens were emulsified in Freund’s complete adjuvant for primary immunisations (~100 nmol antigen peptide) and in Freund’s incomplete adjuvant for three booster immunisations (~50 nmol antigen peptide). The presence of antibodies to the antigen peptides in post-immunisation serum samples was assessed using an enzyme-linked immunosorbent assay (ELISA), in comparison with pre-immune serum (Figure 5—figure supplement 1a; Figure 6—figure supplement 1). Antibodies to the antigen peptides were purified from the final bleed antiserum by affinity purification using the AminoLink Plus Immobilization Kit (Thermo Fisher Scientific, Waltham, MA), with bound antibodies eluted using glycine elution buffer (6.3 ml of 100 mM glycine [VWR Chemicals, Leicestershire, UK] and 0.7 ml of Tris [1 M, pH = 7.0]) and […] (TEA) elution buffer (6.3 ml of TEA [Sigma-Aldrich, Gillingham, UK] and 0.7 ml of Tris [1 M, pH = 7.0]). Eluates were dialyzed and sodium azide (0.1%) was added for long-term storage of the affinity-purified antibodies at 4°C. The specificity of ArSK/CCK1 antibodies eluted with TEA, which were subsequently used for immunohistochemistry (see below), was assessed by ELISA by testing them at a concentration of 1:10 with the following synthetic peptides (100 µl at a concentration of 1 µM dissolved in carbonate/bicarbonate buffer [25 mM sodium carbonate, 25 mM sodium bicarbonate, pH = 9.8]): ArSK/CCK1, ArSK/CCK2, ArSK/CCK2(ns) and the A. rubens luqin-type peptide ArLQ (Figure 5—figure supplement 1b). The rabbit antiserum to ArSK/CCK1 has been assigned the RRID:AB_2877176 and the guinea pig antiserum to ArSK/CCKR has been assigned the RRID:AB_2891354.

[2] = test system: tube foot preparations; assay: In vitro contraction of tube foot preparations (organ bath); design: species or system Asterias rubens; settings: for contraction of tube foot preparations: in vitro, 1 nM to 1 µM, n = 8–10; for mean effect on tube foot preparations, % of the effect of 10 µM acetylcholine: peptide 1 µM
Description: (§1) Effects of peptides on preparations were tested and recorded using an isotonic transducer (MLT0015, ADInstruments Pty Ltd) connected to a bridge amplifier (FE221 Bridge Amp, ADInstruments Pty Ltd) linked to PowerLab data acquisition hardware (2/36, ADInstruments Pty Ltd). Data were collected and analysed using LabChart (RRID:SCR_017551; v8.0.7) software installed on a laptop computer (Lenovo E540, Windows 7 Professional). Stock solutions of synthetic peptides were prepared in distilled water and added to the organ bath to achieve final concentrations ranging from 0.1 nM to 1 μM. To assess the viability of preparations and to enable normalization of responses to ArSK/CCK1 or ArSK/CCK2, the starfish neuropeptide NGFFYamide (100 nM) was tested on cardiac stomach preparations and acetylcholine (10 µM) was tested on tube foot and apical muscle preparations. To assess the importance of tyrosine sulphation for peptide bioactivity, a non-sulphated analog of ArSK/CCK2 (ArSK/CCK2(ns)) was also tested on cardiac stomach (n = 5), tube foot, and apical muscle preparations (data not shown).

[3] = test system: cardiac stomach preparations; assay: In vitro contraction of cardiac stomach preparations (organ bath); design: species or system Asterias rubens; settings: for contraction of cardiac stomach preparations: in vitro, 1 nM to 1 μM, n = 5–9; for effect compared with NGFFYamide (100 nM): peptide 1 µM, Student's t-test p > 0.05, data not shown
Description: as §1

[4] = biological target: T1, ArSK/CCKR (Asterias rubens, UniProt A0A8F2ZGB9); assay: Aequorin bioluminescence receptor assay in CHO-K1 cells (G5A) co-transfected with ArSK/CCKR and human Gα16; assay type: cell-based; settings: for EC50: luminescence as % of maximal response, four to six independent transfections, two to three replicates each, 3 × 10^−17 to 10^−4 M
T1 sequence (A0A8F2ZGB9 1-434): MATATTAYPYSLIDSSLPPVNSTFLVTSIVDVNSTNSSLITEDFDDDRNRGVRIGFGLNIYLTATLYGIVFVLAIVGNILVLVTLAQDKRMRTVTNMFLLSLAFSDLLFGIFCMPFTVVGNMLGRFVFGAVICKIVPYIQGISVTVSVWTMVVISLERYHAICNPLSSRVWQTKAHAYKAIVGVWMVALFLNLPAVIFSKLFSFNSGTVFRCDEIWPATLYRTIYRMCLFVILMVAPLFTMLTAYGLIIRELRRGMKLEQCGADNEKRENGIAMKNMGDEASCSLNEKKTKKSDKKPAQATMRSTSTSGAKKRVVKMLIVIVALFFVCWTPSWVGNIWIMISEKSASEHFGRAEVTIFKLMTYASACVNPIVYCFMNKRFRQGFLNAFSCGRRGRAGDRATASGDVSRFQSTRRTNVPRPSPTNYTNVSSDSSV
Text: To enable testing of ArSK/CCK1 and ArSK/CCK2 as candidate ligands for ArSK/CCKR, a full-length cDNA encoding ArSK/CCKR was synthesized by GenScript (Piscataway, NJ) and cloned into pcDNA 3.1+ vector (Invitrogen, Thermo Fisher Scientific, Waltham, MA). A partial Kozak translation initiation sequence (CACC) was introduced upstream to the start codon (ATG). CHO-K1 cells stably expressing the mitochondrial targeted calcium-sensitive bioluminescent reporter GFP-aequorin fusion protein (G5A) ([Baubet et al., 2000]) were used as a heterologous expression system for ArSK/CCKR. These cells have been used previously for neuropeptide receptor deorphanisation ([Bauknecht and Jékely, 2015]) and were generously supplied to us by Dr Gáspár Jékely (University of Exeter). The cell line was generated using the CHO-K1 cell line from Sigma-Aldrich (85051005; RRID: CVCL_0214), which is certified by the European Collection of Authenticated Cell Cultures (ECACC), and expression of the GFP-aequorin fusion protein (G5A) in the cell line was determined by functionality in displaying calcium-activated luminescence. […] Cells were cultured, co-transfected with the pcDNA 3.1+ vector containing the ArSK/CCKR cDNA sequence and plasmids encoding the promiscuous human G-protein Gα16. Then bioluminescence-based receptor assays were performed, as described previously for A. rubens luqin-type receptors ([Yañez-Guerra et al., 2018]).
[…] Concentration-response data were determined as a percentage of the highest response for each peptide (100% activation). EC50 values were calculated from concentration-response curves based on four to six independent transfections and averaging two to three replicates in each transfection using Prism 6.0 (RRID:SCR_002798; GraphPad software, La Jolla, CA). Cells transfected with an empty vector were used for control experiments.

SMILES | ELISA reactivity (optical density) with antibodies to ArSK/CCK1 [1] | effectiveness on tube foot preparations compared with ArSK/CCK2 ([2]; 25 and 100 nM, Bonferroni's test p < 0.01 and 0.05) | contraction of tube foot preparations [2] | mean effect on tube foot preparations, % of the effect of 10 µM acetylcholine [2] | contraction of cardiac stomach preparations [3] | effect compared with NGFFYamide (100 nM) [3] | EC50 [4] [nM] | potency as ligand for ArSK/CCKR compared with ArSK/CCK1 and ArSK/CCK2 ([4]; from EC50 values)
CC(C)C[C@H](NC(=O)CNC(=O)[C@H](Cc1c[nH]cn1)NC(=O)CNC(=O)[C@H](Cc1ccc(OS(=O)(=O)O)cc1)NC(=O)[C@H](CC(=O)O)NC(=O)[C@H](CC(=O)O)NC(=O)[C@@H](NC(=O)[C@H](CCCCN)NC(=O)[C@H](CO)NC(=O)[C@@H]1CCC(=O)N1)C(C)C)C(=O)N[C@@H](Cc1ccccc1)C(=O)N[C@@H](Cc1c[nH]c2ccccc12)C(N)=O [ArSK/CCK1] ([pGlu]SKVDD[sY]GHGLFW-NH2) | above the OD value for the negative control | significantly more effective than ArSK/CCK2 | concentration-dependent contraction | ~ 220% | concentration-dependent contraction | not significantly different | 0.25 | 
CC(C)C[C@H](NC(=O)CNC(=O)[C@H](Cc1ccccc1)NC(=O)CNC(=O)[C@H](Cc1ccc(O)cc1)NC(=O)[C@H](CCC(N)=O)NC(=O)[C@H](CC(=O)O)NC(=O)[C@H](CC(=O)O)NC(=O)CNC(=O)CN)C(=O)N[C@@H](Cc1ccccc1)C(=O)N[C@@H](Cc1ccccc1)C(N)=O [ArSK/CCK2(ns)] (H-GGDDQYGFGLFF-NH2; N-terminus assumed) | do not cross-react |  | did not cause contraction |  | modest contraction |  | 48000 | five to six orders of magnitude less potent
CC(C)C[C@H](NC(=O)CNC(=O)[C@H](Cc1ccccc1)NC(=O)CNC(=O)[C@H](Cc1ccc(OS(=O)(=O)O)cc1)NC(=O)[C@H](CCC(N)=O)NC(=O)[C@H](CC(=O)O)NC(=O)[C@H](CC(=O)O)NC(=O)CNC(=O)CN)C(=O)N[C@@H](Cc1ccccc1)C(=O)N[C@@H](Cc1ccccc1)C(N)=O [ArSK/CCK2] (H-GGDDQ[sY]GFGLFF-NH2; N-terminus assumed) | do not cross-react |  | concentration-dependent contraction | ~ 110% | concentration-dependent contraction | not significantly different | 0.12 | 
